Test results from the NIST ThermoML archive (doi:10.1021/je5003225).
± gives the expanded uncertainty stated by the source.

What was measured:
[1] = Liquid; Ebulliometric method (Recirculating still)
[2] = refractive index (Na D-line) (dimensionless); conditions: 298.15 K; 101.33 kPa; Liquid; Standard Abbe refractometry
[3] = xn = mol fraction of the nth substance listed; conditions: 298.15 K, 101 kPa, Liquid, Vibrating tube method

Work on `CCC(C)O` (centres undefined) [butan-2-ol] yielded a Normal boiling temperature [1] of 99.61 ± 0.3 °C and a refractive index [2] of 1.3949 ± 0.0005.
`CCC(C)O` (centres undefined) [butan-2-ol] + CCOC(C)=O gave a mass density ([3]; x2 = 0) of 802.5 ± 0.2 kg/m3, a mass density ([3]; x2 = 0.0415) of 805.6 ± 0.2 kg/m3 and a mass density ([3]; x2 = 0.0917) of 809.5 ± 0.2 kg/m3. The mass density ([3]; x2 = 0.1482) was 813.9 ± 0.2 kg/m3, the mass density ([3]; x2 = 0.208) was 818.7 ± 0.2 kg/m3 and the mass density ([3]; x2 = 0.257) was 822.8 ± 0.2 kg/m3. For the same molecule, the mass density ([3]; x2 = 0.2963) was 826.2 ± 0.2 kg/m3, the mass density ([3]; x2 = 0.3488) was 830.7 ± 0.2 kg/m3 and the mass density ([3]; x2 = 0.3914) was 834.5 ± 0.2 kg/m3. For the same molecule, the mass density ([3]; x2 = 0.4397) was 838.9 ± 0.2 kg/m3, the mass density ([3]; x2 = 0.4905) was 843.5 ± 0.2 kg/m3 and the mass density ([3]; x2 = 0.5313) was 847.3 ± 0.2 kg/m3. For the same molecule, the mass density ([3]; x2 = 0.6) was 853.8 ± 0.2 kg/m3, the mass density ([3]; x2 = 0.6539) was 859 ± 0.2 kg/m3 and the mass density ([3]; x2 = 0.7031) was 863.8 ± 0.2 kg/m3. It also gave a mass density ([3]; x2 = 0.741) of 867.5 ± 0.2 kg/m3, a mass density ([3]; x2 = 0.7953) of 873 ± 0.2 kg/m3 and a mass density ([3]; x2 = 0.8528) of 878.9 ± 0.2 kg/m3. The mass density ([3]; x2 = 0.8891) was 882.6 ± 0.2 kg/m3 and the mass density ([3]; x2 = 0.9484) was 889 ± 0.2 kg/m3.
Molecule `CCC(C)O` (centres undefined) [butan-2-ol] + COC(C)=O has a mass density ([3]; x2 = 0) of 802.5 ± 0.2 kg/m3.
For `CCOC(C)=O` [ethyl acetate] + CCC(C)O, the mass density ([3]; x1 = 1) was 894.5 ± 0.2 kg/m3.
With `COC(C)=O` [methyl ethanoate] + CCC(C)O the mass density ([3]; x1 = 0.058) was 807.2 ± 0.2 kg/m3, the mass density ([3]; x1 = 0.1719) was 817.3 ± 0.3 kg/m3 and the mass density ([3]; x1 = 0.2756) was 827.5 ± 0.3 kg/m3. For the same molecule, the mass density ([3]; x1 = 0.3391) was 834.2 ± 0.3 kg/m3, the mass density ([3]; x1 = 0.4544) was 847.3 ± 0.3 kg/m3 and the mass density ([3]; x1 = 0.4714) was 849.3 ± 0.3 kg/m3. For the same molecule, the mass density ([3]; x1 = 0.5051) was 853.4 ± 0.3 kg/m3, the mass density ([3]; x1 = 0.5458) was 858.5 ± 0.3 kg/m3 and the mass density ([3]; x1 = 0.593) was 864.5 ± 0.3 kg/m3. The mass density ([3]; x1 = 0.6822) was 876.6 ± 0.3 kg/m3, the mass density ([3]; x1 = 0.799) was 893.7 ± 0.3 kg/m3 and the mass density ([3]; x1 = 0.8576) was 902.9 ± 0.3 kg/m3. For the same molecule, the mass density ([3]; x1 = 0.8788) was 906.3 ± 0.3 kg/m3, the mass density ([3]; x1 = 0.9586) was 919.9 ± 0.3 kg/m3 and the mass density ([3]; x1 = 1) was 927.3 ± 0.3 kg/m3.
